Patent publication US11071731B2, “Allosteric modulators of the mu opioid receptor” (Chiromics, LLC, priority 2017, dated 2021)

Tests used:
mu opioid receptor (MOR) [1] = biological target: T1, mu opioid receptor (MOR) (Homo sapiens, UniProt P35372); experiment: Hit Hunter cAMP signaling assay (adenylyl cyclase inhibition), PAM mode with EC20 endomorphin-1; assay type: cell-based; settings: for EC50: cAMP EC50, adenylyl cyclase inhibition; for cAMP Max. Resp.: maximal response for adenylyl cyclase inhibition
mu opioid receptor (MOR) [2] = biological target: T1, mu opioid receptor (MOR); experiment: PathHunter β-arrestin recruitment assay, PAM mode with EC20 endomorphin-1; assay type: cell-based; settings: for β-arr Max. Resp.: maximal response for β-arrestin recruitment; for EC50: β-arrestin recruitment, read-out: β-arr. EC50
How it was run: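 β-Arrestin recruitment to the receptor was tracked by chemiluminescent β-galactosidase activity from complementing fragments (ED on receptor, EA on β-arrestin). Per-compound outputs were EC50 and percent maximal response.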

T1 sequence (P35372 whole entry): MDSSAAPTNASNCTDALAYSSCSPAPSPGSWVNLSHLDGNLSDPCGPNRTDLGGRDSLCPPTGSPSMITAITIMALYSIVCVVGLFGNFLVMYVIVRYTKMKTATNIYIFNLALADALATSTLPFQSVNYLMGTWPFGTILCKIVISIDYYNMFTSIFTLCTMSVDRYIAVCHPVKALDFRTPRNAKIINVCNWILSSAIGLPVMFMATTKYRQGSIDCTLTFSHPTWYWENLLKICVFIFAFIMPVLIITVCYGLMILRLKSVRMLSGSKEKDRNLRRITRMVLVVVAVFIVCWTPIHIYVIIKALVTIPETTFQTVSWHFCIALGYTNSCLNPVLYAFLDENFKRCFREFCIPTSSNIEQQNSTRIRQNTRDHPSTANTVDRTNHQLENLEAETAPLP

Row | Compound | EC50 (mu opioid receptor (MOR) [1]) [nM] | cAMP Max. Resp. (mu opioid receptor (MOR) [1]) | β-arr Max. Resp. (mu opioid receptor (MOR) [2]) | EC50 (mu opioid receptor (MOR) [2]) [nM]
1 | Fc1cnc(Cl)nc1N1CCCCC1c1ccccn1 (stereo not shown) [compound 329] | < 700 | D (D represents a maximal response of < 40%) | D (D represents a maximal response of < 40%) | < 700
2 | Cc1cncc(C2CCCCN2c2nc(Cl)ncc2F)c1 (stereo not shown) [compound 330] | < 700 | D (D represents a maximal response of < 40%) | D (D represents a maximal response of < 40%) | < 700
3 | Fc1cnc(Cl)nc1N1CCCCC1c1ccc(Cl)c(Cl)c1 (stereo not shown) [compound 331] | < 700 | D (D represents a maximal response of < 40%) | D (D represents a maximal response of < 40%) | < 700
4 | Fc1cnc(Cl)nc1N1CCCCC1c1cnccc1C(F)(F)F (stereo not shown) [compound 332] | < 700 | D (D represents a maximal response of < 40%) | D (D represents a maximal response of < 40%) | < 700
5 | Fc1cnc(Cl)nc1N1CCCCC1c1cccc2cnnn12 (stereo not shown) [compound 333] | < 700 | D (D represents a maximal response of < 40%) | D (D represents a maximal response of < 40%) | < 700
6 | Fc1cnc(Cl)nc1N1CCCCC1c1ccc2cncn2c1 (stereo not shown) [compound 334] | < 700 | D (D represents a maximal response of < 40%) | D (D represents a maximal response of < 40%) | < 700
7 | Fc1cnc(Cl)nc1N1CCCCC1c1cccnc1F (stereo not shown) [compound 335] | < 700 | D (D represents a maximal response of < 40%) | D (D represents a maximal response of < 40%) | < 700
8 | Fc1cnc(Cl)nc1N1CCCCC1c1cnc2ccccn12 (stereo not shown) [compound 336] | < 700 | D (D represents a maximal response of < 40%) | D (D represents a maximal response of < 40%) | < 700
9 | Fc1cnc(Cl)nc1N1CCCCC1c1cnc2cccnn12 (stereo not shown) [compound 337] | < 700 | D (D represents a maximal response of < 40%) | D (D represents a maximal response of < 40%) | < 700
10 | Fc1cnc(Cl)nc1N1CCCCC1c1cnc2cnccn12 (stereo not shown) [compound 338] | < 700 | D (D represents a maximal response of < 40%) | D (D represents a maximal response of < 40%) | < 700
11 | Fc1cnc(Cl)nc1N1CCCCC1c1nc2ccccc2s1 (stereo not shown) [compound 340] | < 700 | D (D represents a maximal response of < 40%) | D (D represents a maximal response of < 40%) | < 700
12 | Fc1cnc(Cl)nc1N1CCCCC1c1ccc2ncsc2c1 (stereo not shown) [compound 341] | < 700 | D (D represents a maximal response of < 40%) | D (D represents a maximal response of < 40%) | < 700
13 | Oc1ncc(F)c(N2CCCCC2c2cccc(C(F)(F)F)c2)n1 (stereo not shown) [compound 349] | < 700 | D (D represents a maximal response of < 40%) | D (D represents a maximal response of < 40%) | < 700
14 | Oc1ncc(F)c(N2CCCCC2c2cccc(C(F)(F)F)c2)n1 (stereo not shown) [compound 350] |  | D (D represents a maximal response of < 40%) | D (D represents a maximal response of < 40%) | < 700
15 | Fc1c(Cl)ncnc1N1CCCCC1c1cccc(C(F)(F)F)c1 (stereo not shown) [compound 351] | < 700 | D (D represents a maximal response of < 40%) | D (D represents a maximal response of < 40%) | < 700
16 | Fc1cnc(Cl)nc1N1CCCCC1c1cc(C(F)(F)F)c2[nH]ncc2c1 (stereo not shown) [compound 352] | < 700 | D (D represents a maximal response of < 40%) | D (D represents a maximal response of < 40%) | < 700

Row | Compound | EC50 (mu opioid receptor (MOR) [1]) [nM] | cAMP Max. Resp. (mu opioid receptor (MOR) [1]) | β-arr Max. Resp. (mu opioid receptor (MOR) [2]) | EC50 (mu opioid receptor (MOR) [2]) [nM]
17 | Fc1ccc(C(F)(F)F)cc1C1CCCCN1c1nc(Cl)ncc1F (stereo not shown) [compound 353] | < 700 | D (D represents a maximal response of < 40%) | D (D represents a maximal response of < 40%) | < 700
18 | Fc1cnc(Cl)nc1N1CCCCC1c1c(C(F)(F)F)ccc(F)c1Br (stereo not shown) [compound 354] | < 700 | D (D represents a maximal response of < 40%) | D (D represents a maximal response of < 40%) | < 700
19 | Fc1cnc(Cl)nc1N1CCCCC1c1cccc(C(F)(F)F)c1F (stereo not shown) [compound 355] | < 700 | D (D represents a maximal response of < 40%) | D (D represents a maximal response of < 40%) | < 700
20 | Oc1ncnc(N2CCCCC2c2cccc(C(F)(F)F)c2)c1F (stereo not shown) [compound 356] | < 700 | D (D represents a maximal response of < 40%) | D (D represents a maximal response of < 40%) | < 700
21 | Fc1cnc(Cl)nc1C1CCCCN1c1nc(Cl)ncc1F (stereo not shown) [compound 357] | < 700 | D (D represents a maximal response of < 40%) | D (D represents a maximal response of < 40%) | < 700
22 | Cc1noc(C2CCCCN2c2nc(Cl)ncc2F)n1 (stereo not shown) [compound 358] | < 700 | D (D represents a maximal response of < 40%) | D (D represents a maximal response of < 40%) | < 700
23 | FC(F)(F)c1cccc(C2CCCCN2c2ccnc(Cl)c2)c1 (stereo not shown) [compound 359] | < 700 | D (D represents a maximal response of < 40%) | D (D represents a maximal response of < 40%) | < 700
24 | FC(F)(F)c1cccc(C2CCCCN2c2cc(Cl)ncn2)c1 (stereo not shown) [compound 360] | < 700 | D (D represents a maximal response of < 40%) | D (D represents a maximal response of < 40%) | < 700
25 | COc1cnc(Cl)nc1N1CCCCC1c1cccc(C(F)(F)F)c1 (stereo not shown) [compound 361] | < 700 | D (D represents a maximal response of < 40%) | D (D represents a maximal response of < 40%) | < 700
26 | Fc1cnc(Cl)nc1N1CCCCC1c1ccccc1 (stereo not shown) [compound 362] | < 700 | D (D represents a maximal response of < 40%) | D (D represents a maximal response of < 40%) | < 700
27 | Cc1nnc(C2CCCCN2c2nc(Cl)ncc2F)o1 (stereo not shown) [compound 363] | < 700 | D (D represents a maximal response of < 40%) | D (D represents a maximal response of < 40%) | < 700
28 | Cc1cnc(C2CCCCN2c2nc(Cl)ncc2F)o1 (stereo not shown) [compound 364] | < 700 | D (D represents a maximal response of < 40%) | D (D represents a maximal response of < 40%) | < 700
29 | Fc1c(C2CCCCN2c2ccnc(Cl)n2)cccc1C(F)(F)F (stereo not shown) [compound 365] | < 700 | D (D represents a maximal response of < 40%) | D (D represents a maximal response of < 40%) | < 700
30 | Cc1coc(C2CCCCN2c2nc(Cl)ncc2F)n1 (stereo not shown) [compound 366] | < 700 | D (D represents a maximal response of < 40%) | D (D represents a maximal response of < 40%) | < 700
31 | Fc1ncc(F)c(N2CCCCC2c2cccc(C(F)(F)F)c2)n1 (stereo not shown) [compound 368] | < 700 | D (D represents a maximal response of < 40%) | D (D represents a maximal response of < 40%) | < 700
32 | Fc1cnc(Cl)nc1N1CCCCC1c1cccc(Cl)c1F (stereo not shown) [compound 369] | < 700 | D (D represents a maximal response of < 40%) | D (D represents a maximal response of < 40%) | < 700
